Assay [1] has as its target human 5-HT3 serotonin receptors (Homo sapiens (Human), UniProt P46098). Kind of assay: [3H]BRL 43694 competition binding.
In assay [2] the target is human α7 nAChRs transiently expressed in Xenopus laevis oocytes (Homo sapiens (Human), UniProt P36544). Kind of assay: Oocyte electrophysiology screen (TEVC). In kind it is cell-based. The settings on record: 0.01 mM test compound, peak current relative to 0.2 mM ACh. In outline: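 Oocytes expressing human α7 were clamped at −80 mV by TEVC. After a 0.2 mM ACh control pulse, test compound was applied at 0.01 mM for 30 s. Agonist response is peak current as % of the ACh response, in triplicate.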

[3] abbreviates: CHO cell membranes, [3H]BRL 43694, Cheng Prusoff, read-out: h-5HT3 Ki.

The structures appear in SMILES notation. Where a name gives a salt, the structure may show the parent alone. Read-outs that look alike come from different tables or passages of the source.

This note sets out measurements from patent US10183938B2, “Geminal substituted quinuclidine amide compounds as agonists of α-7 nicotonic acetylcholine receptors” (AXOVANT SCIENCES GMBH, priority 2014, dated 2019).

human α7 nAChRs transiently expressed in Xenopus laevis oocytes, sequence (P36544 23-502 limits assumed): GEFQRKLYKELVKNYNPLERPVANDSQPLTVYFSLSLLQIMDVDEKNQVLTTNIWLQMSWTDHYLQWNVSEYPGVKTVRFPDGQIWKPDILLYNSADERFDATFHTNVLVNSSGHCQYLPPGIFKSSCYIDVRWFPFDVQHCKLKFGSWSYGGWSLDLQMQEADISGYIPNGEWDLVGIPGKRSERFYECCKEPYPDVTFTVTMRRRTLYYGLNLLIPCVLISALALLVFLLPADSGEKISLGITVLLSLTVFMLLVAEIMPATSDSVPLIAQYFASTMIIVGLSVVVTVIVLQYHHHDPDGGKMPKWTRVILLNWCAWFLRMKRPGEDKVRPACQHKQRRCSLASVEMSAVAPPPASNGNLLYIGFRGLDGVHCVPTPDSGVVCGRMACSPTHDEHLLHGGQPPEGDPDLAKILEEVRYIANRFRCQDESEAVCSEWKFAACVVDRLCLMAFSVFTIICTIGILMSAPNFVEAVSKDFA
human 5-HT3 serotonin receptors, sequence (P46098 24-478): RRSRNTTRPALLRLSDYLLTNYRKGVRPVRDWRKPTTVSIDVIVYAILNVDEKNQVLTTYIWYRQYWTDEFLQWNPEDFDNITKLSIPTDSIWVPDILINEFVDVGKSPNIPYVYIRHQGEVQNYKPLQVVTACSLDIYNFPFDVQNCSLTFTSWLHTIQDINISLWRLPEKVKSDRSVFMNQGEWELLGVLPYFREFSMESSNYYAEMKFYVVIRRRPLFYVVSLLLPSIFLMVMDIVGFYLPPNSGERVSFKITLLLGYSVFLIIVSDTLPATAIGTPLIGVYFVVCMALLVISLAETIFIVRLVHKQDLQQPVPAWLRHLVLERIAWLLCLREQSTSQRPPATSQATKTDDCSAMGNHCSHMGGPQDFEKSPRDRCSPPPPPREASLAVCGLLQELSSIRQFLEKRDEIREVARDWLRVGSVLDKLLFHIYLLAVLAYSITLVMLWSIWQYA

Regarding `O=C(NC1C2CCN(CC2)C12CC2)c1cc2cccc(Cl)c2s1` (single isomer, unassigned; enantiomer1) [56a, 7-chloro-N-(1′-azaspiro[cyclopropane-1,2′-bicyclo[2.2.2]octan]-3′-yl)benzo[b]thiophene-2-carboxamide-enantiomer1], the affinity in assay [1] corresponds to a Ki of 48 nM. Also, the “% ACh @ 10 μM Oocyte” value in assay [2] turned out to be 1231 % ACh.
`O=C(NC1C2CCN(CC2)C12CC2)c1ccc2ccsc2c1` (single isomer, unassigned; enantiomer1) [58a, N-(1′-azaspiro[cyclopropane-1,2′-bicyclo[2.2.2]octan]-3′-yl)benzo[b]thiophene-6-carboxamide-enantiomer1]: the Ki (as a rule, the equilibrium dissociation constant of an inhibitor or competing ligand from its target) in assay [1] (setting [3]) turned out to be 910 nM. For the same compound, the “% ACh @ 10 μM Oocyte” value in assay [2] came to 235 % ACh.
In assay [1], `O=C(NC1C2CCN(CC2)C12CC2)c1ccc2occc2c1` (single isomer, unassigned; enantiomer1) [59a, N-(1′-azaspiro[cyclopropane-1,2′-bicyclo[2.2.2]octan]-3′-yl)benzofuran-5-carboxamide-enantiomer1] had a Ki of 6500 nM. The “% ACh @ 10 μM Oocyte” value in assay [2] is reported as 823 % ACh.
As for `O=C(NC1C2CCN(CC2)C12CC2)c1cc2cccc(C(F)(F)F)c2s1` (single isomer, unassigned; enantiomer1) [60a, N-(1′-azaspiro[cyclopropane-1,2′-bicyclo[2.2.2]octan]-3′-yl)-7-(trifluoromethyl)benzo[b]thiophene-2-carboxamide-enantiomer1], the Ki in assay [1] (setting [3]) came to 1010 nM. In assay [2], the “% ACh @ 10 μM Oocyte” value is 501 % ACh.
In the same order, the values of `O=C(NC1C2CCN(CC2)C12CC2)c1cc2ccc(F)cc2s1` (single isomer, unassigned; enantiomer1) [61a, 6-fluoro-N-(1′-azaspiro[cyclopropane-1,2′-bicyclo[2.2.2]octan]-3′-yl)benzo[b]thiophene-2-carboxamide-enantiomer1] are 1500 nM and 1493 % ACh.
In assay [1], `O=C(NC1C2CCN(CC2)C12CC2)c1cc2cc(F)ccc2s1` (single isomer, unassigned; enantiomer1) [64a, 5-fluoro-N-(1′-azaspiro[cyclopropane-1,2′-bicyclo[2.2.2]octan]-3′-yl)benzo[b]thiophene-2-carboxamide-enantiomer1] returned a Ki of 420 nM. In addition, in assay [2], the “% ACh @ 10 μM Oocyte” value was determined as 511 % ACh.
`CC1(C)[C@H](NC(=O)c2cc3cccc(Cl)c3s2)C2CCN1CC2` [(R)-3, (R)-7-chloro-N-(2,2-dimethylquinuclidin-3-yl)benzo[b]thiophene-2-carboxamide hydrochloride]: the Ki in assay [1] (setting [3]) was determined as 270 nM. For the same compound, the “% ACh @ 10 μM Oocyte” value in assay [2] was determined as 304 % ACh.
In the same order, the values of `CC1(C)[C@H](NC(=O)c2cc3cccc(F)c3s2)C2CCN1CC2` [(R)-4, (R)—N-(2,2-dimethylquinuclidin-3-yl)-7-fluoro-benzo[b]thiophene-2-carboxamide hydrochloride] are 870 nM and 1060 % ACh.
Regarding `CC1(C)[C@H](NC(=O)c2ccc3ccsc3c2)C2CCN1CC2` [(R)-5, (R)—N-(2,2-dimethylquinuclidin-3-yl)benzo[b]thiophene-6-carboxamide hydrochloride], the Ki in assay [1] (setting [3]) is 1900 nM. Further, the “% ACh @ 10 μM Oocyte” value in assay [2] worked out at 282 % ACh.
In the same order, the values of `CC1(C)[C@H](NC(=O)c2ccc3occc3c2)C2CCN1CC2` [(R)-6, (R)—N-(2,2-dimethylquinuclidin-3-yl)benzofuran-5-carboxamide hydrochloride] are above 10000 nM and 374 % ACh.
In the same order, the values of `CC1(C)[C@H](NC(=O)c2cc3cccc(C(F)(F)F)c3s2)C2CCN1CC2` [(R)-7, (R)—N-(2,2-dimethylquinuclidin-3-yl)-7-(trifluoromethyl)benzo[b]thiophene-2-carboxamide hydrochloride] are 3400 nM and 466 % ACh.
In the same order, the values of `CC1(C)[C@H](NC(=O)c2cc3ccc(F)cc3s2)C2CCN1CC2` [(R)-8, (R)—N-(2,2-dimethylquinuclidin-3-yl)-6-fluorobenzo[b]thiophene-2-carboxamide hydrochloride] are 6500 nM and 480 % ACh.
Turning to `CC1(C)[C@H](NC(=O)c2cc3ccc(C#N)cc3s2)C2CCN1CC2` [(R)-9, (R)-6-cyano-N-(2,2-dimethylquinuclidin-3-yl)benzo[b]thiophene-2-carboxamide hydrochloride], the Ki in assay [1] (setting [3]) was above 10000 nM. Moreover, in assay [2], the “% ACh @ 10 μM Oocyte” value was determined as 2 % ACh.
As to `CC1(C)[C@H](NC(=O)c2cc3ccc(C(F)(F)F)cc3s2)C2CCN1CC2` [(R)-10, (R)—N-(2,2-dimethylquinuclidin-3-yl)-6-(trifluoromethyl)benzo[b]thiophene-2-carboxamide hydrochloride], the Ki in assay [1] (setting [3]) was above 10000 nM. The “% ACh @ 10 μM Oocyte” value in assay [2] worked out at 1 % ACh.
In the case of `CC1(C)[C@H](NC(=O)c2cc3cc(F)ccc3s2)C2CCN1CC2` [(R)-11, (R)—N-(2,2-dimethylquinuclidin-3-yl)-5-fluorobenzo[b]thiophene-2-carboxamide hydrochloride], in assay [1] (setting [3]), the Ki worked out at 1700 nM. Further, the “% ACh @ 10 μM Oocyte” value in assay [2] came to 552 % ACh.
In the same order, the values of `CC1(C)[C@H](NC(=O)c2cc3cc(Cl)ccc3s2)C2CCN1CC2` [(R)-13, (R)-5-chloro-N-(2,2-dimethylquinuclidin-3-yl)benzo[b]thiophene-2-carboxamide hydrochloride] are 2100 nM and 132 % ACh.
Turning to `CC1(C)[C@H](NC(=O)c2cc3cc(Cl)c(Cl)cc3s2)C2CCN1CC2` [(R)-14, (R)-5,6-dichloro-N-(2,2-dimethylquinuclidin-3-yl)benzo[b]thiophene-2-carboxamide hydrochloride], the Ki in assay [1] (setting [3]) is above 10000 nM. Further, the “% ACh @ 10 μM Oocyte” value in assay [2] is on record as 3 % ACh.
On the same counts, the results for `Cc1ccc2cc(C(=O)N[C@@H]3C4CCN(CC4)C3(C)C)sc2c1` [(R)-15, (R)—N-(2,2-dimethylquinuclidin-3-yl)-6-methylbenzo[b]thiophene-2-carboxamide hydrochloride] are above 10000 nM and 539 % ACh.
Consider `Cc1ccc2sc(C(=O)N[C@@H]3C4CCN(CC4)C3(C)C)cc2c1` [(R)-16, (R)—N-(2,2-dimethylquinuclidin-3-yl)-5-methylbenzo[b]thiophene-2-carboxamide hydrochloride], for which the Ki in assay [1] (setting [3]) came out at 2500 nM. Moreover, in assay [2], the “% ACh @ 10 μM Oocyte” value was determined as 74 % ACh.
Take `CC1(C)[C@H](NC(=O)c2cc3cc(C(F)(F)F)ccc3s2)C2CCN1CC2` [(R)-17, (R)—N-(2,2-dimethylquinuclidin-3-yl)-5-(trifluoromethyl)benzo[b]thiophene-2-carboxamide hydrochloride]: the Ki in assay [1] (setting [3]) was above 10000 nM. The “% ACh @ 10 μM Oocyte” value in assay [2] is listed as 0 % ACh.
In the same order, the values of `CC1(C)[C@H](NC(=O)c2cc3ccc(C4CC4)cc3s2)C2CCN1CC2` [(R)-18, (R)-6-cyclopropyl-N-(2,2-dimethylquinuclidin-3-yl)benzo[b]thiophene-2-carboxamide hydrochloride] are above 10000 nM and 422 % ACh.
For `CC1(C)[C@H](NC(=O)c2cc3cc(C4CC4)ccc3s2)C2CCN1CC2` [(R)-19, (R)-5-cyclopropyl-N-(2,2-dimethylquinuclidin-3-yl)benzo[b]thiophene-2-carboxamide hydrochloride], in assay [1] (setting [3]), the Ki amounted to 1600 nM. Besides, the “% ACh @ 10 μM Oocyte” value in assay [2] amounted to 149 % ACh.
As for `COc1ccc2cc(C(=O)N[C@@H]3C4CCN(CC4)C3(C)C)sc2c1` [(R)-20, (R)—N-(2,2-dimethylquinuclidin-3-yl)-6-methoxybenzo[b]thiophene-2-carboxamide hydrochloride], the Ki in assay [1] (setting [3]) was above 10000 nM. Further, the “% ACh @ 10 μM Oocyte” value in assay [2] is 558 % ACh.
Take `CC1(C)[C@H](NC(=O)c2cc3ccoc3cn2)C2CCN1CC2` [(R)-22, (R)—N-(2,2-dimethylquinuclidin-3-yl)furo[2,3-c]pyridine-5-carboxamide hydrochloride]: in assay [1] (setting [3]), the Ki was 6500 nM. For the same compound, in assay [2], the “% ACh @ 10 μM Oocyte” value stood at 456 % ACh.
As to `COCc1cccc2cc(C(=O)N[C@@H]3C4CCN(CC4)C34CC4)sc12` [(R)-199, (R)-7-(methoxymethyl)-N-(1′-azaspiro[cyclopropane-1,2′-bicyclo[2.2.2]octan]-3′-yl)benzo[b]thiophene-2-carboxamide hydrochloride], the Ki in assay [1] (setting [3]) came to 580 nM.
Still for that read-out and setting: the figure for `O=C(N[C@@H]1C2CCN(CC2)C12CC2)c1cc2ccc3c(c2s1)OCCC3` [(R)-201, (R)—N-(1′-azaspiro[cyclopropane-1,2′-bicyclo[2.2.2]octan]-3′-yl)-3,4-dihydro-2H-thieno[3,2-h]chromene-8-carboxamide hydrochloride] is 3600 nM; for `O=C(N[C@@H]1C2CCN(CC2)C12CC2)c1ccc2cc(Cl)sc2c1` [(R)-203, (R)-2-chloro-N-(1′-azaspiro[cyclopropane-1,2′-bicyclo[2.2.2]octan]-3′-yl)benzo[b]thiophene-6-carboxamide hydrochloride] it is 2300 nM.
Turning to `O=C(N[C@@H]1C2CCN(CC2)C12CC2)c1cc2ccc3c(c2s1)CCCO3` [(R)-204, (R)—N-(1′-azaspiro[cyclopropane-1,2′-bicyclo[2.2.2]octan]-3′-yl)-8,9-dihydro-7H-thieno[2,3-f]chromene-2-carboxamide hydrochloride], in assay [1] (setting [3]), the Ki is above 10000 nM.
In the case of `Cc1c(Cl)ccc2cc(C(=O)N[C@@H]3C4CCN(CC4)C34CC4)sc12` [(R)-205, (R)-6-chloro-7-methyl-N-(1′-azaspiro[cyclopropane-1,2′-bicyclo[2.2.2]octan]-3′-yl)benzo[b]thiophene-2-carboxamide hydrochloride], the inhibitory constant (Ki) in assay [1] (setting [3]) is 2600 nM.
As to `COc1c(C2CC2)ccc2cc(C(=O)N[C@@H]3C4CCN(CC4)C34CC4)sc12` [(R)-262, (R)-6-cyclopropyl-7-methoxy-N-(1′-azaspiro[cyclopropane-1,2′-bicyclo[2.2.2]octan]-3′-yl)benzo[b]thiophene-2-carboxamide hydrochloride], the Ki in assay [1] (setting [3]) was above 10000 nM.
